# Assay results from patent US20100216779A1 (GLAXOSMITHKLINE LLC, priority 2007, published 2010).
# Key:
# Format in all cases: cell-based
# [1] = test system: COLO205 (colon); assay: Inhibition of cell proliferation, CellTiter-Glo, COLO205; settings: Homo sapiens, COLO 205, 72 h
# Summary of the method: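 Exponentially growing COLO205 cells in medium with 10% FBS were plated below 2000 cells/well at 37 °C, 5% CO2. Untreated wells served as controls.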
# [2] = target: T1, human IGF-1R (NIH-3T3 cells over expressing human IGF-1R) (Homo sapiens, UniProt P08069); assay: IGF-1R cellular autophosphorylation (DELFIA); settings: IGF-1 stimulated
# T1 construct: expressed in transfected cells; host or cells: NIH-3T3 (mouse fibroblasts)
# T1 sequence (P08069 31-1367): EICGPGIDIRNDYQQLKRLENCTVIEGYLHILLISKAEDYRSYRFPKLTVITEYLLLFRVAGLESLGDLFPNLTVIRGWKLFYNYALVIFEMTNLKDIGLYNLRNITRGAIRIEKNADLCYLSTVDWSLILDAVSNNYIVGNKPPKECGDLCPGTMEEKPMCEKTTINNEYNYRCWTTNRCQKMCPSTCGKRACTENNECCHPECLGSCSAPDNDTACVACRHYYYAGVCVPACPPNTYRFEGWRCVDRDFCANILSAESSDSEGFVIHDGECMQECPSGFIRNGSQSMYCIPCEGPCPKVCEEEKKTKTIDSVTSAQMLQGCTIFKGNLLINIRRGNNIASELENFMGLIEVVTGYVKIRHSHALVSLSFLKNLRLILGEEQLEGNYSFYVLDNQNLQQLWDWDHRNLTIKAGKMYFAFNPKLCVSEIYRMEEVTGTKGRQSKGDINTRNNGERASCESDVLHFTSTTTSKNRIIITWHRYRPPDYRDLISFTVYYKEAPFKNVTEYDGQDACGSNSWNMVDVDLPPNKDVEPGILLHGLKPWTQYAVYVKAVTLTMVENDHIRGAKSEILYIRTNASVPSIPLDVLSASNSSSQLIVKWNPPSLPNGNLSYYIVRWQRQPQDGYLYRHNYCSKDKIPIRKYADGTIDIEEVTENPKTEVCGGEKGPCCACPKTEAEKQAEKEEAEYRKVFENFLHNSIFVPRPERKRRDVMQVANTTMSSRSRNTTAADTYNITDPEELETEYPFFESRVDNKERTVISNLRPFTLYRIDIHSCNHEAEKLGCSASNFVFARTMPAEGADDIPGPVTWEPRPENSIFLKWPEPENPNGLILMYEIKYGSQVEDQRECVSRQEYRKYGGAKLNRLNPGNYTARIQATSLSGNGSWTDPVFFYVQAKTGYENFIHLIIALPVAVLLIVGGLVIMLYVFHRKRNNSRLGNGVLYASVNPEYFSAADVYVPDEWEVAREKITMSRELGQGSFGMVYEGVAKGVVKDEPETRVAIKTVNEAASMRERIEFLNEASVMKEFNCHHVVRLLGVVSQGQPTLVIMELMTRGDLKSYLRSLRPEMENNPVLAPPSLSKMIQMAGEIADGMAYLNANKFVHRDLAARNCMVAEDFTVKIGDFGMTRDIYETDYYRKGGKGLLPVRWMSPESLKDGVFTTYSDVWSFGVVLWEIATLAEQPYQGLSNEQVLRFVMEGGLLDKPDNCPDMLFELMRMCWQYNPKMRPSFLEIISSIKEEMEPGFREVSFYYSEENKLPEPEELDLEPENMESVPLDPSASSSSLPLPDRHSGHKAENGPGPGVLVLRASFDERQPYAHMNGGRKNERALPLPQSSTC
# Summary of the method: (§1)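 Readout: DELFIA on lysates, with anti-IGF-1R or anti-IR capture and europium anti-pTyr detection, expressed relative to 100% ligand-stimulated signal. Human IGF-1R- or IR-overexpressing NIH-3T3 cells got compound (1.5 nM–30 uM) for 2 h before 15 min IGF-1 (30 ng/mL) or insulin (3 ug/mL).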
# [3] = target: T2, IR (NIH-3T3 cells over expressing human IGF-1R or IR) (Homo sapiens, UniProt P06213); assay: IR cellular autophosphorylation (DELFIA); settings: NIH-3T3 cells over expressing IR, insulin stimulated
# T2 construct: expressed in transfected cells; host or cells: NIH-3T3 (mouse fibroblasts)
# T2 sequence (P06213 28-1382): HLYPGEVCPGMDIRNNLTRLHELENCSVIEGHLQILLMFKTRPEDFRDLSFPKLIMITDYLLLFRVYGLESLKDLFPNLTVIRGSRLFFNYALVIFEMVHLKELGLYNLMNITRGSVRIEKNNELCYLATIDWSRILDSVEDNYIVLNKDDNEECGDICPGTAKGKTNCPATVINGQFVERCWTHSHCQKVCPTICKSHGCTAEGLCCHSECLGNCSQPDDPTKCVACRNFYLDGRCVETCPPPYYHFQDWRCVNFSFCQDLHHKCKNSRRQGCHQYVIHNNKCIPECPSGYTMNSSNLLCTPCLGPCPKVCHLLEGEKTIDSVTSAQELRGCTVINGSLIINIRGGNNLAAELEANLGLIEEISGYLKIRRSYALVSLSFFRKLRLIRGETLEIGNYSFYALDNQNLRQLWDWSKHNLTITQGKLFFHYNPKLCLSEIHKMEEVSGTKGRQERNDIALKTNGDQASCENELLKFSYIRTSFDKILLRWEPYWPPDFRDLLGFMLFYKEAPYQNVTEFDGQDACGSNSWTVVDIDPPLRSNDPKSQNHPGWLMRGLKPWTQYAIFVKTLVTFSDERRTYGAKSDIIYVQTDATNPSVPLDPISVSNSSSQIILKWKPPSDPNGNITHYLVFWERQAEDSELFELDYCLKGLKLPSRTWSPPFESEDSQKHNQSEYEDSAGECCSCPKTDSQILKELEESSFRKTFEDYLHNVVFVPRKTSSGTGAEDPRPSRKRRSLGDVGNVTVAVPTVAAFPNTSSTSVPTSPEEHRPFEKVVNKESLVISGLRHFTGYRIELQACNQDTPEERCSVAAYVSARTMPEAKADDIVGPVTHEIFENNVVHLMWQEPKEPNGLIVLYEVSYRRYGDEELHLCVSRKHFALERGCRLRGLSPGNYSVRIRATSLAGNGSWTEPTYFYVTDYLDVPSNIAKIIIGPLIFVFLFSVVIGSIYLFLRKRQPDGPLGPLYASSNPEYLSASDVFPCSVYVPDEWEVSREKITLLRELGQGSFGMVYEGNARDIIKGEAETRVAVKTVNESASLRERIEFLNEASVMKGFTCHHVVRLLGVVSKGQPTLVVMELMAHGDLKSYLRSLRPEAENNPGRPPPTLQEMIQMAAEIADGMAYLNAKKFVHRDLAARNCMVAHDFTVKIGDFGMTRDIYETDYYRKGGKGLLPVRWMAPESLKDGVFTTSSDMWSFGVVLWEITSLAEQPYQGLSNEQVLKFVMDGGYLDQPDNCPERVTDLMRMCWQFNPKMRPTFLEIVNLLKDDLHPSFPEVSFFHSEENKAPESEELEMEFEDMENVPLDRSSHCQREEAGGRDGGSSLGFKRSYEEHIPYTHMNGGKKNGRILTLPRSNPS
# Summary of the method: as §1
SMILES,IC50 [1] [µM],IC50 [2] [µM],IC50 [3] [µM]
"COc1cc(N2CCC(N3CCC(O)CC3)CC2)ccc1Nc1nccc(-c2c(-c3cccc(C(=O)Nc4c(F)cccc4F)c3)nc3ccccn23)n1 [Example 80, N-(2,6-difluorophenyl)-3-[3-(2-{[4-(4-hydroxy-1,4′-bipiperidin-1′-yl)-2-(methyloxy)-phenyl]amino}-4-pyrimidinyl)imidazo[1,2-a]pyridin-2-yl]benzamide]",< 0.25,< 0.1,< 0.1
"COc1cc(N2CCC(N3CCC(O)CC3)CC2)ccc1Nc1nccc(-c2c(-c3ccc(OC)c(C(=O)Nc4c(F)cccc4F)c3)nc3ccccn23)n1 [Example 81, N-(2,6-difluorophenyl)-5-[3-(2-{[4-(4-hydroxy-1,4′-bipiperidin-1′-yl)-2-(methyloxy)phenyl]-amino}-4-pyrimidinyl)imidazo[1,2-a]pyridin-2-yl]-2-(methyloxy)benzamide]",< 0.25,< 0.1,< 0.1
"O=C(Nc1c(F)cccc1F)c1cccc(-c2nc3ccccn3c2-c2ccnc(Nc3ccc(N4CCC(N5CCCCC5)CC4)cc3)n2)c1 [Example 82, 3-[3-(2-{[4-(1,4′-bipiperidin-1′-yl)phenyl]amino}-4-pyrimidinyl)imidazo[1,2-a]pyridin-2-yl]-N-(2,6-difluorophenyl)benzamide]",< 0.25,< 0.1,0.1 to 0.5
"COc1cc(N2CCC(N3CCC[C@H](O)C3)CC2)ccc1Nc1nccc(-c2c(-c3cccc(C(=O)Nc4c(F)cccc4F)c3)nc3ccccn23)n1 [Example 83, N-(2,6-difluorophenyl)-3-[3-(2-{[4-[(3S)-3-hydroxy-1,4′-bipiperidin-1′-yl]-2-(methyloxy)phenyl]amino}-4-pyrimidinyl)imidazo[1,2-a]pyridin-2-yl]benzamide]",0.25 to 1,< 0.1,0.1 to 0.5
"COc1cc(N2CCC(N3CCSCC3)CC2)ccc1Nc1nccc(-c2c(-c3cccc(C(=O)Nc4c(F)cccc4F)c3)nc3ccccn23)n1 [Example 85, N-(2,6-difluorophenyl)-3-{3-[2-({2-(methyloxy)-4-[4-(4-thiomomholinyl)-1-piperidinyl]phenyl}amino)-4-pyrimidinyl]imidazo[1,2-a]pyridin-2-yl}benzamide]",0.25 to 1,0.1 to 0.5,0.1 to 0.5
"COc1cc(N2CCC(N3C[C@@H]4C[C@H]3CN4CCF)CC2)ccc1Nc1nccc(-c2c(-c3cccc(C(=O)Nc4c(F)cccc4F)c3)nc3ccccn23)n1 [Example 86, N-(2,6-difluorophenyl)-3-[3-(2-{[4-{4-[(1 S,4S)-5-(2-fluoroethyl)-2,5-diazabicyclo-[2.2.1]hept-2-yl]-1-piperidinyl}-2-(methyloxy)phenyl]amino}-4-pyrimidinyl)imidazo[1,2-a]pyridin-2-yl]benzamide]",0.25 to 1,< 0.1,< 0.1
"COc1cc(N2CCN(C3CCN(CCS(C)(=O)=O)CC3)CC2)ccc1Nc1nccc(-c2c(-c3cccc(C(=O)Nc4c(F)cccc4F)c3)nc3ccccn23)n1 [Example 89, N-(2,6-difluorophenyl)-3-[3-(2-{[2-(methyloxy)-4-(4-{1-[2-(methylsulfonyl)ethyl]-4-piperidinyl}-1-piperazinyl)phenyl]amino}-4-pyrimidinyl)imidazo[1,2-a]pyridin-2-yl]benzamide]",< 0.25,< 0.1,< 0.1
"COc1cc(N2CCN(C3CCN(CCF)CC3)CC2)ccc1Nc1nccc(-c2c(-c3cccc(C(=O)Nc4c(F)cccc4F)c3)nc3ccccn23)n1 [Example 90, N-(2,6-difluorophenyl)-3-[3-(2-{[4-{4-[1-(2-fluoroethyl)-4-piperidinyl]-1-piperazinyl}-2-(methyloxy)phenyl]amino}-4-pyrimidinyl)imidazo[1,2-a]pyridin-2-yl]benzamide]",0.25 to 1,< 0.1,< 0.1
"CCOc1cc(N2CCN(C3CCN(CCF)CC3)CC2)ccc1Nc1nccc(-c2c(-c3cccc(C(=O)Nc4c(F)cccc4F)c3)nc3ccccn23)n1 [Example 91, N-(2,6-difluorophenyl)-3-(3-{2-[(2-(ethyloxy)-4-{4-[1-(2-fluoroethyl)-4-piperidinyl]-1-piperazinyl}phenyl)amino]-4-pyrimidinyl}imidazo[1,2-a]pyridin-2-yl)benzamide]",0.25 to 1,< 0.1,< 0.1
"CCOc1cc(N2CCN(C3CCN(CCS(C)(=O)=O)CC3)CC2)ccc1Nc1nccc(-c2c(-c3cccc(C(=O)Nc4c(F)cccc4F)c3)nc3ccccn23)n1 [Example 92, N-(2,6-difluorophenyl)-3-[3-(2-{[2-(ethyloxy)-4-(4-{1-[2-(methylsulfonyl)ethyl]-4-piperidinyl}-1-piperazinyl)phenyl]amino]-4-pyrimidinyl)imidazo[1,2-a]pyridin-2-yl]benzamide]",< 0.25,< 0.1,< 0.1
"COc1cc([C@H]2CC[C@@H](N3CCN(CCS(C)(=O)=O)CC3)CC2)ccc1Nc1nccc(-c2c(-c3cccc(C(=O)Nc4c(F)cccc4F)c3)nc3ccccn23)n1 [Example 93, N-(2,6-difluorophenyl)-3-[3-(2-{[2-(methyloxy)-4-(cis-4-{4-[2-(methylsulfonyl)-ethyl]-1-piperazinyl}cyclohexyl)phenyl]amino]-4-pyrimidinyl)imidazo[1,2-a]pyridin-2-yl]benzamide]",0.25 to 1,< 0.1,< 0.1
"COc1cc([C@H]2CC[C@H](N3CCN(CCS(C)(=O)=O)CC3)CC2)ccc1Nc1nccc(-c2c(-c3cccc(C(=O)Nc4c(F)cccc4F)c3)nc3ccccn23)n1 [Example 94, N-(2,6-difluorophenyl)-3-[3-(2-{[2-(methyloxy)-4-(trans-4-{4-[2-(methylsulfonyl)-ethyl]-1-piperazinyl}cyclohexyl)phenyl]amino}-4-pyrimidinyl)imidazo[1,2-a]pyridin-2-yl]benzamide]",> 1,< 0.1,0.1 to 0.5
"COc1cc(N2CCC(N3CCCCC3)CC2)c(Cl)cc1Nc1nccc(-c2c(-c3cccc(C(=O)Nc4c(F)cccc4F)c3)nc3ccccn23)n1 [Example 104, 3-[3-(2-{[4-(1,4′-bipiperidin-1′-yl)-5-chloro-2-(methyloxy)phenyl]amino]-4-pyrimidinyl)imidazo[1,2-a]pyridin-2-yl]-N-(2,6-difluorophenyl)benzamide]",0.25 to 1,< 0.1,< 0.1
"COc1cc(N2CCC(N3CCCCC3)CC2)c(Cl)cc1Nc1nccc(-c2c(-c3ccc(OC)c(C(=O)Nc4c(F)cccc4F)c3)nc3ccccn23)n1 [Example 105, 5-[3-(2-{[4-(1,4′-bipiperidin-1′-yl)-5-chloro-2-(methyloxy)phenyl]amino]-4-pyrimidinyl)imidazo[1,2-a]pyridin-2-yl]-N-(2,6-difluorophenyl)-2-(methyloxy)benzamide]",< 0.25,< 0.1,< 0.1
"COc1cc(N2CCC(N3CCCCC3)CC2)c(F)cc1Nc1nccc(-c2c(-c3cccc(C(=O)Nc4c(F)cccc4F)c3)nc3ccccn23)n1 [Example 106, 3-[3-(2-{[4-(1,4′-bipiperidin-1′-yl)-5-fluoro-2-(methyloxy)phenyl]amino}-4-pyrimidinyl)imidazo[1,2-a]pyridin-2-yl]-N-(2,6-difluorophenyl)benzamide]",0.25 to 1,< 0.1,< 0.1
"COc1cc(N2CCC(N3CCCCC3)CC2)c(F)cc1Nc1nccc(-c2c(-c3ccc(OC)c(C(=O)Nc4c(F)cccc4F)c3)nc3ccccn23)n1 [Example 107, 5-[3-(2-{[4-(1,4′-bipiperidin-1′-yl)-5-fluoro-2-(methyloxy)phenyl]amino}-4-pyrimidinyl)imidazo[1,2-a]pyridin-2-yl]-N-(2,6-difluorophenyl)-2-(methyloxy)benzamide]",0.25 to 1,< 0.1,< 0.1
"COc1cc(N2CCC(N3CCCCC3)CC2)c(C)cc1Nc1nccc(-c2c(-c3ccc(OC)c(C(=O)Nc4c(F)cccc4F)c3)nc3ccccn23)n1 [Example 109, 5-[3-(2-{[4-(1,4′-bipiperidin-1′-yl)-5-methyl-2-(methyloxy)phenyl]amino]-4-pyrimidinyl)imidazo[1,2-a]pyridin-2-yl]-N-(2,6-difluorophenyl)-2-(methyloxy)benzamide]",< 0.25,< 0.1,< 0.1
"COc1cc(N2CCC(O)CC2)ccc1Nc1nccc(-c2c(-c3ccc(OC)c(C(=O)Nc4c(F)cccc4F)c3)nc3ccccn23)n1 [Example 122, N-(2,6-difluorophenyl)-5-[3-(2-{[4-(4-hydroxy-1-piperidinyl)-2-(methyloxy)phenyl]amino}-4-pyrimidinyl)imidazo[1,2-a]pyridin-2-yl]-2-(methyloxy)benzamide]",< 0.25,< 0.1,< 0.1
"CCOc1ccc(-c2nc3ccccn3c2-c2ccnc(Nc3ccc(CCN4CCN(C)CC4)cc3OC)n2)cc1C(=O)Nc1c(F)cccc1F [Example 133, N-(2,6-difluorophenyl)-2-(ethyloxy)-5-{3-[2-({2-(methyloxy)-4-[2-(4-methyl-1-piperazinyl)ethyl]phenyl}amino)-4-pyrimidinyl]imidazo[1,2-a]pyridin-2-yl}benzamide]",0.25 to 1,< 0.1,< 0.1
"COc1cc(CCN2CCN(C)CC2)ccc1Nc1nccc(-c2c(-c3ccc(OC(C)C)c(C(=O)Nc4c(F)cccc4F)c3)nc3ccccn23)n1 [Example 134, N-(2,6-difluorophenyl)-2-isopropoxy-5-{3-[2-({2-methoxy-4-[2-(4-methylpiperazin-1-yl)ethyl]phenyl}amino)pyrimidin-4-yl]imidazo[1,2-a]pyridin-2-yl}benzamide]",0.25 to 1,< 0.1,< 0.1
